How the values were obtained:
TRZAS [1] = assay: Pre-emergence effects on crop plants (Table D2); assay type: in vivo, Triticum aestivum; conditions: crop plant; application rate 80 g/ha; visual grading after ca. 3 weeks
DIGSA [2] = assay: Herbicidal pre-emergence action (Table A12); assay type: in vivo, Digitaria sanguinalis; conditions: application rate 320 g/ha; visual grading after ca. 3 weeks
Summary of the method: (§1)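 One monocotyledonous and one dicotyledonous weed species shared each pot. Seeds were sown in sandy loam and covered over with soil.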

LOLRI [3] = assay: Herbicidal pre-emergence action (Table A3); assay type: in vivo, Lolium rigidum; conditions: visual grading after ca. 3 weeks
Summary of the method: as §1

AMARE = assay: Herbicidal pre-emergence action (Table A8); assay type: in vivo, Amaranthus retroflexus; conditions: application rate 1280 g/ha; visual grading after ca. 3 weeks vs untreated controls (100% = plants have died off, 0% = as control plants)
Summary of the method: as §1

GLXMA [4] = assay: Pre-emergence effects on crop plants (Table D4); assay type: in vivo, Glycine max; conditions: crop plant; application rate 320 g/ha; visual grading after ca. 3 weeks
Description: (§5) Seeds of mono- and dicotyledonous weed plants and crop plants were sown, in plastic or organic planting pots, in sandy loam and covered with soil. The compounds according to the invention, formulated in the form of wettable powders (WP) or as emulsifiable concentrates (EC), were applied to the surface of the covering soil as aqueous suspension or emulsion, with the addition of 0.5% of an additive, at an application rate of 600 1 of water/ha (converted).
(§6) Following treatment, the pots were placed in a greenhouse and kept under optimum growth conditions for the test plants.

VERPE [5] = assay: Herbicidal pre-emergence action (Table A11); assay type: in vivo, Veronica persica; conditions: application rate 1280 g/ha; visual grading after ca. 3 weeks
Summary of the method: as §1

ECHCG [6] = assay: Herbicidal post-emergence action, section E (Table E5); assay type: in vivo, Echinochloa crus-galli; conditions: application rate 320 g/ha; assessed visually after ca. 3 weeks
Description: (§2) 2 to 3 weeks after sowing, the test plants were sprayed in the single-leaf stage.

BRSNW [7] = assay: Pre-emergence effects on crop plants (Table D5); assay type: in vivo, Brassica napus; conditions: crop plant; application rate 80 g/ha; visual grading after ca. 3 weeks
Description: as §5, §6

POAAN [8] = assay: Herbicidal pre-emergence action (Table A7); assay type: in vivo, Poa annua; conditions: application rate 320 g/ha; visual grading after ca. 3 weeks
Summary of the method: as §1

ALOMY [9] = assay: Herbicidal pre-emergence action, section C (Table C2); assay type: in vivo, Alopecurus myosuroides; conditions: application rate 320 g/ha; visual grading after ca. 3 weeks
ORYZA [10] = assay: Pre-emergence effects on crop plants (Table D3); conditions: crop plant; application rate 80 g/ha; visual grading after ca. 3 weeks
STEME = assay: Herbicidal pre-emergence action (Table A6); assay type: in vivo, Stellaria media; conditions: application rate 320 g/ha; visual grading after ca. 3 weeks
Summary of the method: as §1

LOLRI [11] = assay: Herbicidal post-emergence action (Table B5); assay type: in vivo, Lolium rigidum; conditions: application rate 1280 g/ha; rated visually after about 3 weeks
Experimental: (§3) Seeds of mono- and dicotyledonous weed plants were placed in plastic pots in sandy loam soil (doubly sown with in each case one species of mono- or dicotyledonous weed plants per pot), covered with soil and cultivated in a greenhouse under controlled growth conditions. 2 to 3 weeks after sowing, the test plants were treated at the one-leaf stage. […] After the test plants had been kept in the greenhouse under optimum growth conditions for about 3 weeks, the activity of the preparations was rated visually in comparison to untreated controls. For example, 100% activity = the plants have died, 0% activity = like control plants.

BRSNW [12] = assay: Post-emergence effects on crop plants (Table F5); assay type: in vivo, Brassica napus; conditions: application rate 80 g/ha, crop plant BRSNW
Description: as §2

MATIN [13] = assay: Herbicidal pre-emergence action (Table A4); assay type: in vivo, Matricaria inodora; conditions: application rate 320 g/ha; visual grading after ca. 3 weeks
Summary of the method: as §1

SETVI [14] = assay: Herbicidal post-emergence action (Table B8); assay type: in vivo, Setaria viridis; conditions: application rate 1280 g/ha
Summary of the method: (§4)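 Each pot held sandy loam sown with a single mono- or dicot weed species, grown under controlled greenhouse conditions. Test plants were sprayed at the one-leaf stage, and after about 3 weeks of further growth the percentage activity relative to untreated plants was rated visually.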

VIOTR [15] = assay: Herbicidal post-emergence action, section E (Table E10); assay type: in vivo, Viola tricolor; conditions: application rate 320 g/ha; assessed visually after ca. 3 weeks
Description: as §2

SETVI [16] = assay: Herbicidal pre-emergence action, section C (Table C10); assay type: in vivo, Setaria viridis; conditions: application rate 80 g/ha; visual grading after ca. 3 weeks
ZEAMX [17] = assay: Pre-emergence effects on crop plants (Table D1); assay type: in vivo, Zea mays; conditions: crop plant, visual grading after ca. 3 weeks
ECHCG [18] = assay: Herbicidal pre-emergence action (Table A2); assay type: in vivo, Echinochloa crus-galli; conditions: visual grading after ca. 3 weeks
Summary of the method: as §1

ORYZA [19] = assay: Post-emergence effects on crop plants (Table F3); assay type: in vivo, Oryza sativa; conditions: application rate 320 g/ha, crop plant ORYZA
Description: as §2

ABUTH [20] = assay: Herbicidal pre-emergence action (Table A1); assay type: in vivo, Abutilon theophrasti; conditions: application rate 1280 g/ha; visual grading after ca. 3 weeks vs untreated controls (100% = plants have died off, 0% = as control plants)
Summary of the method: as §1

DIGSA [21] = assay: Herbicidal pre-emergence action, section C (Table C5); assay type: in vivo, Digitaria sanguinalis; conditions: visual grading after ca. 3 weeks
ALOMY [22] = assay: Herbicidal pre-emergence action (Table A9); assay type: in vivo, Alopecurus myosuroides; conditions: application rate 1280 g/ha; visual grading after ca. 3 weeks
Summary of the method: as §1

VIOTR [23] = assay: Herbicidal pre-emergence action, section C (Table C12); assay type: in vivo, Viola tricolor; conditions: application rate 80 g/ha; visual grading after ca. 3 weeks
SETVI [24] = assay: Herbicidal pre-emergence action (Table A5); assay type: in vivo, Setaria viridis; conditions: application rate 320 g/ha; visual grading after ca. 3 weeks
Summary of the method: as §1

LOLRI [25] = assay: Herbicidal pre-emergence action, section C (Table C7); assay type: in vivo, Lolium rigidum; conditions: application rate 320 g/ha; visual grading after ca. 3 weeks
VERPE [26] = assay: Herbicidal pre-emergence action, section C (Table C11); assay type: in vivo, Veronica persica; conditions: application rate 320 g/ha; visual grading after ca. 3 weeks
ALOMY [27] = assay: Herbicidal post-emergence action, section E (Table E2); assay type: in vivo, Alopecurus myosuroides; conditions: application rate 320 g/ha; assessed visually after ca. 3 weeks
Description: as §2

KCHSC = assay: Herbicidal pre-emergence action (Table A10); assay type: in vivo, Kochia scoparia; conditions: application rate 320 g/ha; visual grading after ca. 3 weeks
Summary of the method: as §1

ECHCG [28] = assay: Herbicidal pre-emergence action, section C (Table C6); assay type: in vivo, Echinochloa crus-galli; conditions: application rate 80 g/ha; visual grading after ca. 3 weeks
MATIN [29] = assay: Herbicidal post-emergence action (Table B6); assay type: in vivo, Matricaria inodora; conditions: application rate 1280 g/ha; rated visually after about 3 weeks
Summary of the method: as §4

ABUTH [30] = assay: Herbicidal pre-emergence action, section C (Table C1); assay type: in vivo, Abutilon theophrasti; conditions: application rate 320 g/ha; visual grading after ca. 3 weeks
ZEAMX [31] = assay: Post-emergence effects on crop plants (Table F1); assay type: in vivo, Zea mays; conditions: crop plant ZEAMX
Description: as §2

TRZAS [32] = assay: Post-emergence effects on crop plants (Table F2); assay type: in vivo, Triticum aestivum; conditions: application rate 320 g/ha, crop plant TRZAS
Description: as §2

MATIN [33] = assay: Herbicidal pre-emergence action, section C (Table C8); assay type: in vivo, Matricaria inodora; conditions: application rate 320 g/ha; visual grading after ca. 3 weeks
ECHCG [34] = assay: Herbicidal post-emergence action (Table B3); assay type: in vivo, Echinochloa crus-galli; conditions: application rate 1280 g/ha; rated visually after about 3 weeks
Summary of the method: as §4

POLCO = assay: Herbicidal pre-emergence action, section C (Table C9); assay type: in vivo, Polygonum convolvulus; conditions: visual grading after ca. 3 weeks
POAAN [35] = assay: Herbicidal post-emergence action (Table B7); assay type: in vivo, Poa annua; conditions: application rate 1280 g/ha
Summary of the method: as §4

GLXMA [36] = assay: Post-emergence effects on crop plants (Table F4); assay type: in vivo, Glycine max; conditions: application rate 80 g/ha, crop plant GLXMA
Description: as §2

ABUTH [37] = assay: Herbicidal post-emergence action (Table B1); assay type: in vivo, Abutilon theophrasti; conditions: application rate 1280 g/ha; treated at one-leaf stage; rated visually after about 3 weeks vs untreated controls (100% = plants have died, 0% = like control plants)
Summary of the method: as §4

VERPE [38] = assay: Herbicidal post-emergence action (Table B10); assay type: in vivo, Veronica persica; conditions: application rate 1280 g/ha
Summary of the method: as §4

ALOMY [39] = assay: Herbicidal post-emergence action (Table B2); assay type: in vivo, Alopecurus myosuroides; conditions: application rate 1280 g/ha; rated visually after about 3 weeks
Experimental: as §3

SMILES | pre-emergence activity against TRZAS (TRZAS [1]) | pre-emergence activity against DIGSA (DIGSA [2]) | pre-emergence activity against LOLRI (LOLRI [3]; application rate 320 g/ha) | pre-emergence activity against AMARE (AMARE) | pre-emergence activity against VERPE (VERPE [5]) | pre-emergence activity against POAAN (POAAN [8]) | pre-emergence activity against ALOMY (ALOMY [9]) | pre-emergence activity against ORYZA (ORYZA [10]) | pre-emergence activity against STEME (STEME) | post-emergence activity against BRSNW (BRSNW [12]) | pre-emergence activity against MATIN (MATIN [13]) | post-emergence activity against SETVI (SETVI [14]) | post-emergence activity against VIOTR (VIOTR [15]) | pre-emergence activity against SETVI (SETVI [16]) | post-emergence activity against ORYZA (ORYZA [19]) | pre-emergence activity against ABUTH (ABUTH [20]) | pre-emergence activity against ALOMY (ALOMY [22]) | pre-emergence activity against VIOTR (VIOTR [23]) | pre-emergence activity against SETVI (SETVI [24]) | pre-emergence activity against LOLRI (LOLRI [25]) | also measured
O=C1N(Cc2ccccc2F)CCC12CCCN(Cc1c(F)cccc1F)C2=O (racemic) [I-024] | 0% | 100% | 100% | 90% | 90% | 100% | 90% | 0% | 90% | 0% | 90% | 90% | 80% | 100% | 0% | 90% | 90% | 90% | 100% | 90% | pre-emergence activity against GLXMA (GLXMA [4]): 0%; post-emergence activity against ECHCG (ECHCG [6]): 90%; pre-emergence activity against BRSNW (BRSNW [7]): 20%; post-emergence activity against LOLRI (LOLRI [11]): 90%; pre-emergence activity against ZEAMX (ZEAMX [17]; application rate 320 g/ha): 0%; pre-emergence activity against ECHCG (ECHCG [18]; application rate 1280 g/ha): 100%; pre-emergence activity against DIGSA (DIGSA [21]; application rate 80 g/ha): 80%; pre-emergence activity against VERPE (VERPE [26]): 90%; post-emergence activity against ALOMY (ALOMY [27]): 80%; pre-emergence activity against KCHSC (KCHSC): 90%; pre-emergence activity against ECHCG (ECHCG [28]): 100%; post-emergence activity against MATIN (MATIN [29]): 90%; pre-emergence activity against ABUTH (ABUTH [30]): 90%; post-emergence activity against ZEAMX (ZEAMX [31]; application rate 320 g/ha): 0%; post-emergence activity against TRZAS (TRZAS [32]): 0%; pre-emergence activity against MATIN (MATIN [33]): 90%; post-emergence activity against ECHCG (ECHCG [34]): 90%; pre-emergence activity against POLCO (POLCO; application rate 320 g/ha): 90%
O=C1N(Cc2ccccc2F)CCCC12CCN(Cc1ccccc1F)C2=O (racemic) [I-026] | 0% | 100% | 100% | 90% | 90% | 100% | 100% | 0% | 90% | 0% | 90% | 90% | 80% | 100% | 0% | 90% | 100% | 90% | 100% | 100% | post-emergence activity against POAAN (POAAN [35]): 90%; post-emergence activity against GLXMA (GLXMA [36]): 0%; post-emergence activity against ABUTH (ABUTH [37]): 90%; pre-emergence activity against ZEAMX (ZEAMX [17]; application rate 80 g/ha): 0%; pre-emergence activity against ECHCG (ECHCG [18]; application rate 320 g/ha): 100%; pre-emergence activity against DIGSA (DIGSA [21]; application rate 320 g/ha): 100%; pre-emergence activity against VERPE (VERPE [26]): 80%; pre-emergence activity against ECHCG (ECHCG [28]): 100%; pre-emergence activity against ABUTH (ABUTH [30]): 80%; post-emergence activity against ZEAMX (ZEAMX [31]; application rate 80 g/ha): 0%; post-emergence activity against TRZAS (TRZAS [32]): 0%; pre-emergence activity against MATIN (MATIN [33]): 90%; pre-emergence activity against POLCO (POLCO; application rate 80 g/ha): 80%
O=C1N(Cc2ccccc2F)CCCC12CCCN(Cc1ccccc1Br)C2=O (racemic) [I-042] |  |  |  |  |  | 100% |  |  |  |  |  |  |  |  |  |  |  |  | 90% |  | post-emergence activity against POAAN (POAAN [35]): 90%; pre-emergence activity against LOLRI (LOLRI [3]; application rate 1280 g/ha): 100%; pre-emergence activity against ECHCG (ECHCG [18]; application rate 320 g/ha): 100%; post-emergence activity against VERPE (VERPE [38]): 90%; post-emergence activity against ALOMY (ALOMY [39]): 90%
